For data set [1], the target named is T1, Palmitoleoyl-protein carboxylesterase NOTUM (Homo sapiens, UniProt Q6P988).
T1 sequence (Q6P988 whole entry): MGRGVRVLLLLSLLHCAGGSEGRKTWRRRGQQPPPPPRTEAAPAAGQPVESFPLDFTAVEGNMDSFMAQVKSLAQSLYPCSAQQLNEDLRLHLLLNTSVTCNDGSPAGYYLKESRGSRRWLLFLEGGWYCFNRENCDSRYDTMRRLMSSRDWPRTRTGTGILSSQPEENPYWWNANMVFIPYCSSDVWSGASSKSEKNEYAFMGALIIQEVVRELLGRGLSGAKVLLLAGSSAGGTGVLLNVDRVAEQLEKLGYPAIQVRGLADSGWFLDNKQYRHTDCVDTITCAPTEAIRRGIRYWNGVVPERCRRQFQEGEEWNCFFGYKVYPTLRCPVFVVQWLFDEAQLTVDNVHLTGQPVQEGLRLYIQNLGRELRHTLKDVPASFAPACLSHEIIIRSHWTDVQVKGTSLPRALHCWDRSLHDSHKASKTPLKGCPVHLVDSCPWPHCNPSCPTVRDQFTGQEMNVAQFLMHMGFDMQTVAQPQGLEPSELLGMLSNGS
As to the kind of experiment: Inhibition of Notum 1 (unknown origin) expressed in HEK293 cells harbouring TCF/LEF luciferase reporter gene assessed as modulation of Wnt/beta-catenin signalling pathway preincubated with recombinant Wnt-3A for 1 hr followed by addition to reporter cell plate incubated overnight by luminescence based microplate reader analysis. (In a reporter assay the amount or activity of a reporter protein is the signal.)

In data set [2] the target is T1, Palmitoleoyl-protein carboxylesterase NOTUM. As to the kind of experiment: Binding affinity to glycosylated Notum 1 (unknown origin) assessed as maximum change in melting temperature at 1 mM by SYPRO orange dye based thermal shift assay. Conditions: 1000 µM.
Data set [3] has the same target. As to the kind of experiment: Binding affinity to glycosylated Notum 1 (unknown origin) assessed as change in melting temperature at 30 uM by SYPRO orange dye based thermal shift assay.
Data set [4] shares this target. In words: Binding affinity to glycosylated Notum 1 (unknown origin) assessed as change in melting temperature at 8 uM by SYPRO orange dye based thermal shift assay.

The structures appear in SMILES notation.

On to `O=C(CCC(=O)N1CCc2ccccc21)OCC(F)F`, for which the EC50 (usually the concentration at which the effect is half-maximal) in data set [1] turned out to be 300 nM.
Regarding `O=C(O)CCC(=O)N1CCc2ccccc21`, the deltaTm in data set [2] came to 2.5 °C; in data set [3] it was 1 °C.
Consider `COC(=O)CCC(=O)N1CCc2ccccc21`, for which the results for the deltaTm in data set [2], in data set [4] and in data set [3] were 10 °C, 2 °C and 5 °C, respectively.

The values are drawn from ChEMBL document CHEMBL5029153, “Structural Insights into Notum Covalent Inhibition” (J Med Chem, 2021).
